US20090253709A1 (NATIONAL DEFENSE MEDICAL CENTER, priority 2008, published 2009)

Legend:
Test in all cases: In vitro cytotoxicity, Development Therapeutics Program
Format in all cases: cell-based
SNB-19 = details: SNB-19, CNS cancer; 1.0×10^−5 M
Description: (§1) From the in vitro experiments of the Development Therapeutics Program of the Cancer Research Institute, the United States, it was known that the synthetic heterocyclic anthraquinone derivatives of the present invention have different inhibition levels to the different cancer cell lines under the concentration of 1.0×10^−5 M. Please refer to Table 2, which is the result of in vitro cytotoxicity of 2,7-disubstituted anthraquinone derivatives of the present invention.

OVCAR-8 = details: OVCAR-8, ovarian cancer; 1.0×10^−5 M
Description: as §1

U251 = details: U251, CNS cancer; 1.0×10^−5 M
Description: as §1

SK-OV-3 = details: SK-OV-3, ovarian cancer; 1.0×10^−5 M
Description: as §1

MALME-3M = details: melanoma, 1.0×10^−5 M
Description: as §1

UACC-257 = details: UACC-257, melanoma; 1.0×10^−5 M
Description: as §1

HCC-2998 = details: HCC-2998, colon cancer; 1.0×10^−5 M
Description: as §1

OVCAR-5 = details: OVCAR-5, ovarian cancer; 1.0×10^−5 M
Description: as §1

SF-268 = details: SF-268, CNS cancer; 1.0×10^−5 M
Description: as §1

NCl-H522 = details: NCl-H522, non-small cell lung cancer; 1.0×10^−5 M
Description: as §1

M14 = details: M14, melanoma; 1.0×10^−5 M
Description: as §1

K-562 = details: K-562, leukemia; 1.0×10^−5 M
Description: as §1

MDA-MB-231/ATCC = details: breast cancer, 1.0×10^−5 M
Description: as §1

NCl-H460 = details: NCl-H460, non-small cell lung cancer; 1.0×10^−5 M
Description: as §1

SR = details: leukemia, 1.0×10^−5 M
Description: as §1

LOX IMVI = details: melanoma, 1.0×10^−5 M
Description: as §1

EKVX = details: non-small cell lung cancer, 1.0×10^−5 M
Description: as §1

PC-3 = details: PC-3, prostate cancer; 1.0×10^−5 M
Description: as §1

DU-145 = details: DU-145, prostate cancer; 1.0×10^−5 M
Description: as §1

HCT-15 = details: HCT-15, colon cancer; 1.0×10^−5 M
Description: as §1

SK-MEL-5 = details: SK-MEL-5, melanoma; 1.0×10^−5 M
Description: as §1

NCI-H23 = details: NCI-H23, non-small cell lung cancer; 1.0×10^−5 M
Description: as §1

SW-620 = details: SW-620, colon cancer; 1.0×10^−5 M
Description: as §1

CAK1-1 = details: CAK1-1, renal cancer; 1.0×10^−5 M
Description: as §1

BT-549 = details: BT-549, breast cancer; 1.0×10^−5 M
Description: as §1

UACC-62 = details: UACC-62, melanoma; 1.0×10^−5 M
Description: as §1

SF-295 = details: SF-295, CNS cancer; 1.0×10^−5 M
Description: as §1

HS 578T = details: breast cancer, 1.0×10^−5 M
Description: as §1

HCT-116 = details: HCT-116, colon cancer; 1.0×10^−5 M
Description: as §1

SF-539 = details: SF-539, CNS cancer; 1.0×10^−5 M
Description: as §1

COLO 205 = details: COLO 205, colon cancer; 1.0×10^−5 M
Description: as §1

SNB-75 = details: SNB-75, CNS cancer; 1.0×10^−5 M
Description: as §1

NCl-H226 = details: NCl-H226, non-small cell lung cancer; 1.0×10^−5 M
Description: as §1

MOLT-4 = details: MOLT-4, leukemia; 1.0×10^−5 M
Description: as §1

HT29 = details: HT29, colon cancer; 1.0×10^−5 M
Description: as §1

CCRF-CEM = details: leukemia, 1.0×10^−5 M
Description: as §1

NCI/ADR-RES = details: breast cancer, 1.0×10^−5 M
Description: as §1

MDA-MB-435 = details: MDA-MB-435, breast cancer; 1.0×10^−5 M
Description: as §1

SMILES | Cellular growth rate (%) (SNB-19) | Cellular growth rate (%) (OVCAR-8) | Cellular growth rate (%) (U251) | Cellular growth rate (%) (SK-OV-3) | Cellular growth rate (%) (MALME-3M) | Cellular growth rate (%) (UACC-257) | Cellular growth rate (%) (HCC-2998) | Cellular growth rate (%) (OVCAR-5) | Cellular growth rate (%) (SF-268) | Cellular growth rate (%) (NCl-H522) | Cellular growth rate (%) (M14) | Cellular growth rate (%) (K-562) | Cellular growth rate (%) (MDA-MB-231/ATCC) | Cellular growth rate (%) (NCl-H460) | Cellular growth rate (%) (SR) | Cellular growth rate (%) (LOX IMVI) | Cellular growth rate (%) (EKVX) | Cellular growth rate (%) (PC-3) | Cellular growth rate (%) (DU-145) | Cellular growth rate (%) (HCT-15) | also measured
CN(C)CC(=O)Nc1ccc2c(c1)C(=O)c1cc(NC(=O)CN(C)C)ccc1C2=O [Compound 8, 2,7-Bis[2-(dimethylamino)acetamido]anthraquinone] | 79.57 | 32.31 | 16.26 | 70.26 | 96.21 | −1.84 | −73.97 | 73.15 | 64.92 | 61.82 | 75.04 | 34.91 | 4.49 | 5.01 | −46.45 | −52.34 | 102.30 | 59.00 | 78.68 | 16.26 | Cellular growth rate (%) (SK-MEL-5): 82.59%; Cellular growth rate (%) (NCI-H23): 51.78%; Cellular growth rate (%) (SW-620): 23.36%; Cellular growth rate (%) (CAK1-1): 59.26%; Cellular growth rate (%) (BT-549): 85.36%; Cellular growth rate (%) (UACC-62): 22.31%; Cellular growth rate (%) (SF-295): −83.51%; Cellular growth rate (%) (HS 578T): −6.11%; Cellular growth rate (%) (HCT-116): 19.07%; Cellular growth rate (%) (SF-539): −3.72%; Cellular growth rate (%) (COLO 205): −73.57%; Cellular growth rate (%) (SNB-75): 76.12%; Cellular growth rate (%) (NCl-H226): 89.14%; Cellular growth rate (%) (MOLT-4): 29.12%; Cellular growth rate (%) (HT29): 11.73%; Cellular growth rate (%) (CCRF-CEM): −13.21%; Cellular growth rate (%) (NCI/ADR-RES): 47.84%; Cellular growth rate (%) (MDA-MB-435): 68.36%
CCN(CC)CCC(=O)Nc1ccc2c(c1)C(=O)c1cc(NC(=O)CCN(CC)CC)ccc1C2=O [Compound 16, 2,7-Bis[3-(diethylamino)propionamido]anthraquinone] | 75.84 | 4.30 | 21.65 | 44.02 | 62.39 | −14.46 | −87.42 | 33.63 | 35.18 | 27.98 | 62.79 | 8.10 | 31.32 | 9.50 | −0.39 | 3.39 | 59.99 | 13.59 | 10.20 | 17.42 | Cellular growth rate (%) (SK-MEL-5): 82.75%; Cellular growth rate (%) (NCI-H23): 30.34%; Cellular growth rate (%) (SW-620): 16.93%; Cellular growth rate (%) (CAK1-1): 3.27%; Cellular growth rate (%) (BT-549): 57.04%; Cellular growth rate (%) (UACC-62): 44.45%; Cellular growth rate (%) (SF-295): −19.91%; Cellular growth rate (%) (HS 578T): −23.77%; Cellular growth rate (%) (HCT-116): −32.45%; Cellular growth rate (%) (SF-539): 37.15%; Cellular growth rate (%) (COLO 205): −49.69%; Cellular growth rate (%) (SNB-75): 46.62%; Cellular growth rate (%) (NCl-H226): 49.89%; Cellular growth rate (%) (MOLT-4): 5.42%; Cellular growth rate (%) (HT29): 3.30%; Cellular growth rate (%) (CCRF-CEM): −6.02%; Cellular growth rate (%) (NCI/ADR-RES): 59.52%; Cellular growth rate (%) (MDA-MB-435): 71.07%
O=C(CCN1CCCC1)Nc1ccc2c(c1)C(=O)c1cc(NC(=O)CCN3CCCC3)ccc1C2=O [Compound 18, 2,7-Bis[3-(pyrrolidino)propionamido]anthraquinone] | 66.97 | 19.58 | 18.16 | 27.14 | 47.00 | −17.88 | 19.99 | 18.81 | 26.67 | 29.16 | 53.88 | 6.40 | 30.47 | 25.52 | 19.75 | 30.74 | 58.72 | 21.66 | 29.53 | 56.14 | Cellular growth rate (%) (SK-MEL-5): 56.94%; Cellular growth rate (%) (NCI-H23): 31.49%; Cellular growth rate (%) (SW-620): 20.01%; Cellular growth rate (%) (CAK1-1): 55.55%; Cellular growth rate (%) (BT-549): 76.91%; Cellular growth rate (%) (UACC-62): 42.72%; Cellular growth rate (%) (SF-295): 48.62%; Cellular growth rate (%) (HS 578T): 5.26%; Cellular growth rate (%) (HCT-116): 10.51%; Cellular growth rate (%) (SF-539): 33.75%; Cellular growth rate (%) (COLO 205): −29.04%; Cellular growth rate (%) (SNB-75): 77.47%; Cellular growth rate (%) (NCl-H226): 41.10%; Cellular growth rate (%) (MOLT-4): 22.97%; Cellular growth rate (%) (HT29): 19.47%; Cellular growth rate (%) (CCRF-CEM): 3.74%; Cellular growth rate (%) (NCI/ADR-RES): 80.59%; Cellular growth rate (%) (MDA-MB-435): 68.84%
